One assay has as its system MM.1S cells. Kind of assay: MM.1S cell proliferation inhibition (MTS assay). The assay is classed as cell-based. The note with it: Homo sapiens, MM1.S, 168 h, 7 days incubation, read-out: MM1.S (IC50, Inhibitory Activity of Compounds on MM.1S Cell Proliferation). As for the experimental part:
The cell concentration was diluted according to a 7-day incubation period, and 180 µL of cell suspension was added to each well of a 96-well plate, with 20,000 cells per well. […] The test compounds were prepared from a 10 mM stock solution and serially diluted in a 5-fold gradient, and 20 µL of the diluted solution was added to each compound-treated well (final DMSO concentration also 0.2%). The cells were incubated in a 37 °C, 5% CO2 incubator for 7 days. After incubation, the reaction solution was prepared according to the MTS assay kit instructions (Promega, G5430), and 20 µL was added to each well. The plate was incubated at 37 °C with 5% CO2 for 3-4 hours. The absorbance at 490 nm was measured using a microplate reader, and the absorbance at 690 nm was used as the background value. […] The IC50 values for cell proliferation inhibition were determined using GraphPad Prism 5.0. Each experiment was repeated three times, and three parallel replicates were performed in each experiment to calculate the mean value and standard deviation.
Inhibitory Activity of Compounds on MM.1S Cell Proliferation

The subject of another assay is Mino cells. Kind of assay: Mino cell proliferation inhibition (MTS assay). It is filed as cell-based. The settings on record: Homo sapiens, 72 h, 3 days incubation, read-out: Mino (IC50, Inhibitory Activity of Compounds on Mino Cell Proliferation). As for the experimental part: The cell concentration was diluted according to a 3-day incubation period, and 90 µL of cell suspension was added to each well of a 96-well plate, resulting in 8,000 cells per well. […] The test compounds were prepared from a 10 mM stock solution and serially diluted in a five-fold gradient. Similarly, 10 µL of the diluted compound solution was added to each compound-treated well (final DMSO concentration 0.2%).
The cells were incubated in a 37 °C, 5% CO2 incubator for 3 days. After incubation, the reaction solution was prepared according to the MTS assay kit instructions (Promega, G5430), and 20 µL was added to each well. The plate was further incubated at 37 °C with 5% CO2 for 3-4 hours. The absorbance at 490 nm was measured using a microplate reader, and the absorbance at 690 nm was used as the background value. The final raw data were calculated as OD490 - OD690. […] The IC50 values for cell proliferation inhibition were determined using GraphPad Prism 5.0. Each experiment was repeated three times, and three parallel replicates were performed in each experiment to calculate the mean value and standard deviation.
Table 2. Inhibitory Activity of Compounds on Mino Cell Proliferation
For orientation: Formazan colour is commonly taken as a measure of viable cells.

The subject of a further assay is MV-4-11 cells. Description: MV-4-11 cell proliferation inhibition (MTS assay). It is filed as cell-based. The settings on record: Homo sapiens, MV4-11, 168 h, 7 days incubation, MTS, read-out: MV-411 (IC50, Inhibitory Activity of Compounds on MV-4-11 Cell Proliferation). As for the experimental part:
MV-4-11 cells were cultured in IMDM medium supplemented with 10% fetal bovine serum and collected. The cell concentration was diluted according to a 7-day incubation period, and 180 µL of cell suspension was added to each well of a 96-well plate, resulting in 2,000 cells per well. […] The test compounds were prepared from a 10 mM stock solution and serially diluted in a five-fold gradient, and 20 µL of the diluted compound solution was added to each compound-treated well (final DMSO concentration 0.2%). The cells were incubated in a 37 °C, 5% CO2 incubator for 7 days. After incubation, the reaction solution was prepared according to the MTS assay kit instructions (Promega, G5430), and 20 µL was added to each well. The plate was further incubated at 37 °C with 5% CO2 for 3-4 hours. The absorbance at 490 nm was measured using a microplate reader, and the absorbance at 690 nm was used as the background value. The final raw data were calculated as OD490 - OD690. […] The IC50 values for cell proliferation inhibition were determined using GraphPad Prism 5.0. Each experiment was repeated three times, and three parallel replicates were performed in each experiment to calculate the mean value and standard deviation.
Table 3. Inhibitory Activity of Compounds on MV-4-11 Cell Proliferation

Another assay has as its target CRBN/DDB1 (Homo sapiens, UniProt Q96SW2). Description: CRBN/DDB1 binding TR-FRET assay. The settings on record: read-out: AVE_Inhibition% (1 µM). As for the experimental part: • 1. 0.1 µL of the reference solution was added to a 384-well assay plate. The final detection concentration was 100 µM, followed by 3-fold serial dilution for 10 points. • 2. 2.5 µL of CRBN/DDB1 was added to the 384-well plate and centrifuged at 1000 rpm for 1 minute. • 3. 2.5 µL of Thalidomide-BODIPY was added to the plate, centrifuged at 1000 rpm for 1 minute, and incubated at 25 °C for 15 minutes. • 4. 5 µL of His-Tb was added to the plate, centrifuged at 1000 rpm for 1 minute, and incubated at 25 °C for 60 minutes. • 5. The TR-FRET signal was measured using a BMG plate reader with a fluorescence ratio of 520/490 nm.
Table 4. Inhibition Rate of Compounds on CRBN/DDB1 Binding
In general terms: In TR-FRET formats the signal depends on donor and acceptor labels being close together.

Each structure is given as a SMILES string.

Chain of CRBN/DDB1 (Q96SW2 whole entry, species assumed): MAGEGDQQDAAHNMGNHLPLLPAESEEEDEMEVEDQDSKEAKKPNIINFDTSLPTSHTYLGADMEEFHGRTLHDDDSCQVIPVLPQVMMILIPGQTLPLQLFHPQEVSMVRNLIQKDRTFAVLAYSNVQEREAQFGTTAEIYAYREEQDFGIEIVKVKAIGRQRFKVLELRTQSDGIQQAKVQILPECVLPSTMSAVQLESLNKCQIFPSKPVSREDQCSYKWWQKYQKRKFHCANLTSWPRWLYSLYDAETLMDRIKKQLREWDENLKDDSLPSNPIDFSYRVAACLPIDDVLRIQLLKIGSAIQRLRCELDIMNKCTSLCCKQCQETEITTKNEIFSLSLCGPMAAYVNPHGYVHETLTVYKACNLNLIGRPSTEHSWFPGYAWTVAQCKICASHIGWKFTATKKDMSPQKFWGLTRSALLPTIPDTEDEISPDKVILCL
Chain of CRBN/DDB1 (Q16531 whole entry partner, species assumed): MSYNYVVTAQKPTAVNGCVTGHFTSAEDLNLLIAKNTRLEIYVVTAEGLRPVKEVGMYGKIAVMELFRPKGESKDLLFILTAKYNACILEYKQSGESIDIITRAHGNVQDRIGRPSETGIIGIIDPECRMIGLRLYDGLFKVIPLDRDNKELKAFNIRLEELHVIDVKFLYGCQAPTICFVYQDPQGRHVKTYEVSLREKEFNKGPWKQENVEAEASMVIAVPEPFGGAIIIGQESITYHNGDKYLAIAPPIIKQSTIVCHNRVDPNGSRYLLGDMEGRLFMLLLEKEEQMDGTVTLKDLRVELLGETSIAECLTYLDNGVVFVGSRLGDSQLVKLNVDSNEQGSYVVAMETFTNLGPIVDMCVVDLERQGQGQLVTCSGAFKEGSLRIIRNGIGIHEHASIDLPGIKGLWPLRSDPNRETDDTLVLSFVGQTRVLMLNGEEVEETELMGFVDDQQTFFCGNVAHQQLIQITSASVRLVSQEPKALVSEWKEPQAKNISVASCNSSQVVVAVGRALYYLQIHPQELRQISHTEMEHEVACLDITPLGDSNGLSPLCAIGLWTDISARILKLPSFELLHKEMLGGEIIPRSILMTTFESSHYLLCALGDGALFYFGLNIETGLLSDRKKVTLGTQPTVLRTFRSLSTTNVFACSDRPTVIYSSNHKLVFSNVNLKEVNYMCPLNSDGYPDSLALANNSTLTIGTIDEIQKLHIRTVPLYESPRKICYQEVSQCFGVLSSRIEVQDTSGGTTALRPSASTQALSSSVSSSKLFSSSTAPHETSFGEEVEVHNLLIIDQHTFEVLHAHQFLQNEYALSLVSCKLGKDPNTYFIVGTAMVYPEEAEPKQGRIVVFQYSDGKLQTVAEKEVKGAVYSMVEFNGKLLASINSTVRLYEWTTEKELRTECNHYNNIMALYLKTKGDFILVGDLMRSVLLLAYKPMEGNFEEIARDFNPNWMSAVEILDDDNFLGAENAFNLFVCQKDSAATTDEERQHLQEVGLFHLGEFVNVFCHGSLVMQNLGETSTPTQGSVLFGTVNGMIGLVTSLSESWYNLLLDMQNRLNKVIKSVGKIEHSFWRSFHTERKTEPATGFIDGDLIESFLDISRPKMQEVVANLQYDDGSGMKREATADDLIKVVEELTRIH

As for `CCn1c2c(OCc3ccc(CN4CCOCC4)cc3)cccc2c(=O)n1C1CCC(=O)NC1=O` (centres unmarked) [Compound D23, 3-(1-Ethyl-7-((4-(morpholinomethyl)benzyl)oxy)-3-oxo-1,3-dihydro-2H-indazol-2-yl)piperidine-2,6-dione], the IC50 in the assay with MM.1S cells was over 10000 nM; in the assay on Mino cells, over 10000 nM; in the assay on MV-4-11 cells, over 20000 nM. In addition, the inhibition at 1 µM at CRBN/DDB1 was under 50%.

As to `Cc1ccc(N2CCN(C(=O)c3ccc(COc4cccc5c(=O)n(C6CCC(=O)NC6=O)[nH]c45)cc3)CC2)c(F)c1` (centres unmarked) [Compound D5, 3-(7-((4-(4-(2-Fluoro-4-methylphenyl)piperazine-1-carbonyl)benzyl)oxy)-3-oxo-1,3-dihydro-2H-indazol-2-yl)piperidine-2,6-dione], the IC50 is under 200 nM in the assay on MM.1S cells, under 200 nM in the assay on Mino cells and 1000 to 20000 nM in the assay on MV-4-11 cells. Also, the inhibition at 1 µM on CRBN/DDB1 was 50 to 90%.

For `O=C1CCC(n2[nH]c3c(OCc4ccc(CN5CCN(c6ccc(Cl)cc6)CC5)cc4)cc(F)cc3c2=O)C(=O)N1` (centres unmarked) [Compound D18, 3-(7-((4-((4-(4-chlorophenyl)piperazin-1-yl)methyl)benzyl)oxy)-5-fluoro-3-oxo-1,3-dihydro-2H-indazol-2-yl)piperidine-2,6-dione], the IC50 in the assay on MM.1S cells, in the assay on Mino cells and in the assay with MV-4-11 cells was under 200 nM in each case. In addition, at CRBN/DDB1, the inhibition at 1 µM was over 90%.

Consider `CCc1ccc([C@H](C)NC(=O)c2ccc3c(=O)n(C4CCC(=O)NC4=O)[nH]c3c2)cc1` (stereo partly drawn) [Compound D47, 2-(2,6-Dioxopiperidin-3-yl)-N-((S)-1-(4-ethylphenyl)ethyl)-3-oxo-2,3-dihydro-1H-indazol-6-carboxamide], for which the IC50 was 200 to 1000 nM in the assay on MM.1S cells, under 200 nM with Mino cells and 200 to 1000 nM with MV-4-11 cells. For the same compound, the inhibition at 1 µM on CRBN/DDB1 was under 50%.

Take `O=C1CCC(n2[nH]c3c(OCc4ccc(CN5CCN(c6ccc(F)cc6F)CC5)cc4)cccc3c2=O)C(=O)N1` (centres unmarked) [Compound D7, 3-(7-((4-((4-(2,4-difluorophenyl)piperazin-1-yl)methyl)benzyl)oxy)-3-oxo-1,3-dihydro-2H-indazol-2-yl)piperidine-2,6-dione]: the IC50 in the assay with MM.1S cells, with Mino cells and in the assay with MV-4-11 cells was under 200 nM throughout. On CRBN/DDB1, the inhibition at 1 µM was over 90%.

With `O=C1CC[C@H](n2[nH]c3c(OCc4ccc(CN5CCOCC5)cc4)cccc3c2=O)C(=O)N1` [Compound D1, (S)-3-(7-((4-(Morpholinomethyl)benzyl)oxy)-3-oxo-1,3-dihydro-2H-indazol-2-yl)piperidine-2,6-dione], the IC50 in the assay on MM.1S cells is under 200 nM; in the assay on Mino cells, 1000 to 10000 nM; in the assay with MV-4-11 cells, over 20000 nM. The inhibition at 1 µM at CRBN/DDB1 was 50 to 90%.

Turning to `N#Cc1ccc(N2CCN(C(=O)c3ccc(COc4cccc5c(=O)n(C6CCC(=O)NC6=O)[nH]c45)cc3)CC2)c(F)c1` (centres unmarked) [Compound D4], the results for the IC50 with MM.1S cells, with Mino cells and in the assay on MV-4-11 cells were under 200 nM, under 200 nM and 1000 to 20000 nM, respectively. For the same compound, on CRBN/DDB1, the inhibition at 1 µM is over 90%.

As to `O=C1CCC(n2[nH]c3c(OCc4ccc(CN5CCN(c6ccc(Cl)cc6)CC5)cc4)cccc3c2=O)C(=O)N1` (centres unmarked) [Compound D9, 3-(7-((4-((4-(4-chlorophenyl)piperazin-1-yl)methyl)benzyl)oxy)-3-oxo-1,3-dihydro-2H-indazol-2-yl)piperidine-2,6-dione], the IC50 in the assay on MM.1S cells, with Mino cells and in the assay with MV-4-11 cells was under 200 nM each time. The inhibition at 1 µM on CRBN/DDB1 is over 90%.

For the compound `Cn1c2c(OCc3ccc(CN4CCN(c5ccc(C#N)cc5F)CC4)cc3)cccc2c(=O)n1C1CCC(=O)NC1=O` (centres unmarked) [Compound D24, 4-(4-(4-(((2-(2,6-dioxopiperidin-3-yl)-1-methyl-3-oxo-2,3-dihydro-1H-indazol-7-yl)oxy)methyl)benzyl)piperazin-1-yl)-3-fluorobenzonitrile], the IC50 with MM.1S cells is under 200 nM; in the assay with Mino cells it was under 200 nM; with MV-4-11 cells, over 20000 nM.

With `O=C1CCC(n2[nH]c3c(OCc4ccc(CN5CCN(c6ccc(Cl)cc6F)CC5)cc4)cc(F)cc3c2=O)C(=O)N1` (centres unmarked) [Compound D21, 3-(7-((4-((4-(4-chloro-2-fluorophenyl)piperazin-1-yl)methyl)benzyl)oxy)-5-fluoro-3-oxo-1,3-dihydro-2H-indazol-2-yl)piperidine-2,6-dione], the IC50 in the assay on MM.1S cells was under 200 nM; in the assay on Mino cells, 200 to 1000 nM; in the assay on MV-4-11 cells it was under 200 nM.

Consider `O=C1CCC(n2[nH]c3c(OCc4ccc(CN5CC(N6CCOCC6)C5)cc4)cc(F)cc3c2=O)C(=O)N1` (centres unmarked) [Compound D20, 3-(5-Fluoro-7-((4-((3-morpholinoazetidin-1-yl)methyl)benzyl)oxy)-3-oxo-1,3-dihydro-2H-indazol-2-yl)piperidine-2,6-dione], for which the IC50 in the assay with MM.1S cells is under 200 nM; in the assay with Mino cells, 200 to 1000 nM; with MV-4-11 cells, 200 to 1000 nM.

In the case of `C[C@H](NC(=O)c1ccc2c(=O)n(C3CCC(=O)NC3=O)[nH]c2c1)c1ccc(F)cc1F` (stereo partly drawn) [Compound D38, N-((S)-1-(2,4-difluorophenyl)ethyl)-2-(2,6-dioxopiperidin-3-yl)-3-oxo-2,3-dihydro-1H-indazole-6-carboxamide], the IC50 is over 10000 nM in the assay with MM.1S cells, over 10000 nM in the assay on Mino cells and over 20000 nM in the assay on MV-4-11 cells.

Regarding `O=C1CCC(n2[nH]c3cc(C(=O)N[C@@H](c4ccccc4)C(F)(F)F)ccc3c2=O)C(=O)N1` (stereo partly drawn) [Compound D35, 2-(2,6-dioxopiperidin-3-yl)-3-oxo-N-((S)-2,2,2-trifluoro-1-phenylethyl)-2,3-dihydro-1H-indazole-6-carboxamide], the IC50 in the assay on MM.1S cells is over 10000 nM; in the assay on Mino cells, over 10000 nM; in the assay on MV-4-11 cells, over 20000 nM.

In the case of `C[C@H](NC(=O)c1ccc2c(=O)n(C3CCC(=O)NC3=O)[nH]c2c1)c1ccccc1` (stereo partly drawn) [Compound D33, 2-(2,6-dioxopiperidin-3-yl)-3-oxo-N-((S)-1-phenylethyl)-2,3-dihydro-1H-indazole-6-carboxamide], the IC50 in the assay on MM.1S cells is over 10000 nM; in the assay on Mino cells, over 10000 nM; in the assay with MV-4-11 cells, over 20000 nM.

On to `O=C1CCC(n2[nH]c3cc(C(=O)NCc4ccc(Cl)cc4)ccc3c2=O)C(=O)N1` (centres unmarked) [Compound D29, N-(4-chlorobenzyl)-2-(2,6-dioxopiperidin-3-yl)-3-oxo-2,3-dihydro-1H-indazole-6-carboxamide], for which the results for the IC50 with MM.1S cells, in the assay on Mino cells and in the assay with MV-4-11 cells were over 10000 nM, over 10000 nM and over 20000 nM, respectively.

Take `O=C1CCC(n2[nH]c3c(OCc4ccc(CN5CC(N6CCOCC6)C5)cc4)cccc3c2=O)C(=O)N1` (centres unmarked) [Compound D13, 3-(7-((4-((3-morpholinoazetidin-1-yl)methyl)benzyl)oxy)-3-oxo-1,3-dihydro-2H-indazol-2-yl)piperidine-2,6-dione]: the IC50 was under 200 nM in the assay on MM.1S cells, 1000 to 10000 nM in the assay with Mino cells and 200 to 1000 nM in the assay with MV-4-11 cells.

Source of the values: patent EP4778920A1, “INDAZOLONE COMPOUND, PREPARATION METHOD THEREFOR, PHARMACEUTICAL COMPOSITION, AND USE” (Shanghai Institute of Materia Medica, Chinese Academy of …, priority 2023, dated 2025).
